Assay in all cases: inhibition of tumour cell growth, NCI panel, 48 h
Test [1] relates to OVCAR-8.
The test system of test [2] is OVCAR-3.
For test [3], the system named is HCT-116.
The test system of test [4] is Malme-3M.
The subject of test [5] is ACHN.
Test [6] concerns UACC-257.
Test [7] relates to SN12C.
The test system of test [8] is RPMI-8226.
The subject of test [9] is CCRF-CEM.
For test [10], the system named is NCI-H23.
Test [11] concerns 786-0.
Test [12] concerns LOX IMVI.
The test system of test [13] is M14.
The subject of test [14] is HT-29.
The subject of test [15] is U-251.
Test [16] has as its system SK-OV-3.

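Following 48 hours of exposure in 96-well plates, responses at five concentrations were used to interpolate endpoints linearly. GI50 marks 50% less growth.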 Calls of active or inactive are those of the source. Cut-off read from the data, not from the text of the source: active = GI50 up to about 1.1 µM and inactive = higher.

`NC(=S)N/N=C(/CC(=O)c1ccc([N+](=O)[O-])cc1)C(=O)Nc1ncc([N+](=O)[O-])s1`: the GI50 in test [1], in test [2], in [3], in test [4], in test [5] and in test [6] was > 100 µM (inactive) each time. The GI50 in [7] was > 100 µM (inactive); in [8] it was > 100 µM (inactive); in test [9] it was 82.4 µM (inactive); in test [10], > 100 µM (inactive); in test [11], > 100 µM (inactive); in test [12], 61.7 µM (inactive). The GI50 in test [13], in test [14] and in test [15] was > 100 µM (inactive) throughout.
For the compound `O=C(O)c1cc(=O)c2c([nH]c3ccccc32)s1`, the GI50 in [1], in test [2], in test [4], in [5], in [6] and in test [7] was > 100 µM (inactive) each time. Further, the GI50 in test [8], in test [9], in [10], in test [11], in [16] and in [13] was > 100 µM (inactive) throughout.
As for `C1CCN(c2nsc(N3CCCCC3)n2)CC1`, the GI50 in test [1], in test [3], in test [4], in test [5], in test [6] and in test [7] was > 100 µM (inactive) in each case. The GI50 was 87.3 µM (inactive) in test [8]; > 100 µM (inactive) in test [9]; > 100 µM (inactive) in [10]; > 100 µM (inactive) in test [11]; > 100 µM (inactive) in test [16]; > 100 µM (inactive) in test [12]. For the same compound, the GI50 in test [13], in test [14] and in [15] was > 100 µM (inactive) each time.
`COc1ccc(CCCN2c3ccccc3Sc3ccccc32)cc1`: the GI50 in [1] is > 100 µM (inactive); in test [3], 36.3 µM (inactive); in test [4], > 100 µM (inactive); in test [5] it was > 100 µM (inactive); in test [6] it was > 100 µM (inactive); in test [7], > 100 µM (inactive). For the same compound, the GI50 in [8] was 32.3 µM (inactive); in [9], 51.2 µM (inactive); in [10], > 100 µM (inactive); in test [11] it was 35.1 µM (inactive); in test [16] it was > 100 µM (inactive); in test [12], 52.8 µM (inactive). Besides, the GI50 in test [13] is > 100 µM (inactive); in [14], 54.1 µM (inactive); in test [15], > 100 µM (inactive).
For `CC(C)N(C(=O)C1(C)CC1)C(C)C`, the GI50 in test [1], in [2], in test [3], in test [4], in test [5] and in [6] was > 100 µM (inactive) throughout. For the same compound, the GI50 in test [7], in test [8], in [9], in test [10], in test [11] and in [16] was > 100 µM (inactive) each time. The GI50 in test [13], in test [14] and in test [15] was > 100 µM (inactive) each time.
For the compound `O=C1C2=C(c3ccccc31)C(c1cccc(Cl)c1)NC(S)=N2` (stereo not given), the GI50 in test [1] is 96.4 µM (inactive); in test [2] it was > 100 µM (inactive); in test [3], > 100 µM (inactive); in [4], > 100 µM (inactive); in [5], 68.1 µM (inactive); in test [6] it was > 100 µM (inactive). Moreover, the GI50 in [7] was > 100 µM (inactive); in test [8], 88.5 µM (inactive); in test [9], > 100 µM (inactive); in [10], > 100 µM (inactive); in test [11], > 100 µM (inactive); in test [16], > 100 µM (inactive). For the same compound, the GI50 in test [13], in [14] and in test [15] was > 100 µM (inactive) in each case.
As for `CC(C(=O)Oc1ccc2ccccc2c1-c1c(O)ccc2ccccc12)c1ccccc1` (stereo not given), the GI50 in [1] was 18.8 µM (inactive); in test [2], 12.6 µM (inactive); in [3], 12.9 µM (inactive); in test [4], 17.4 µM (inactive); in test [5], 13.7 µM (inactive); in [6], 13.7 µM (inactive). Moreover, the GI50 is 14.7 µM (inactive) in test [7]; 15.3 µM (inactive) in test [8]; 16.3 µM (inactive) in [9]; 14.4 µM (inactive) in [10]; 14.8 µM (inactive) in test [11]; 15.4 µM (inactive) in test [16]. In addition, the GI50 was 13.2 µM (inactive) in test [13], 14.8 µM (inactive) in test [14] and 15.1 µM (inactive) in test [15].
As for `CC1=C2C(=O)C3[C@@H](CCC4=CC(=O)CC[C@@]43C)C2CC[C@]12O[C@@H]1C[C@H](C)CN[C@H]1[C@H]2C` (stereo not given in full), the GI50 in [1] is 40.7 µM (inactive); in [2], 45.8 µM (inactive); in test [3], 30.6 µM (inactive); in test [5], 31.4 µM (inactive); in [6], 36 µM (inactive); in test [7], 36.3 µM (inactive). The GI50 in test [8] is 20.7 µM (inactive); in test [9], 15.9 µM (inactive); in test [10] it was 37.6 µM (inactive); in [11], 43.4 µM (inactive); in [16] it was > 100 µM (inactive); in [12] it was 29.6 µM (inactive). Further, the figures for the GI50 in test [13], in test [14] and in [15] were 59 µM (inactive), 39.8 µM (inactive) and 21.4 µM (inactive), respectively.
Regarding `CC1=C[C@H]2C[C@@]3(C)O[C@@H]([C@]4(C)CC[C@H]([C@@H](C)C(=O)O)OO4)CC3C(C)(C)[C@H]2CC1` (stereo not given in full), the GI50 in [1] is 1.45 µM (inactive); in test [2], 1.81 µM (inactive); in test [3], 2.16 µM (inactive); in test [4], 0.849 µM (active); in test [5], 1.57 µM (inactive); in [6], 1.68 µM (inactive). Further, the GI50 in test [7] is 1.39 µM (inactive); in test [10], 1.91 µM (inactive); in test [11], 3.15 µM (inactive); in test [12], 0.161 µM (active); in test [13], 1.44 µM (inactive); in test [14], 0.479 µM (active). In addition, the GI50 in test [15] is 1.65 µM (inactive).
`CC(=O)C1C(=O)NC(=O)C1=O` (stereo not given): the GI50 in test [1], in [2], in test [3], in [4], in test [5] and in [6] was > 100 µM (inactive) in each case. Also, the GI50 in [7], in test [8], in test [10], in test [11], in test [16] and in test [12] was > 100 µM (inactive) in each case. Also, the GI50 in test [13], in test [14] and in test [15] was > 100 µM (inactive) each time.

The values above are taken from ChEMBL document CHEMBL1201862, “PubChem BioAssay data set” (2004).
